The text below walks through data of patent publication US9057725B2, “Composition for diagnosing, treating, and preventing liver disease” (SNU R&DB Foundation, priority 2010, dated 2015).

In data set [1] the target is T1, TM4SF5 (Homo sapiens, UniProt O14894).
T1 construct: endogenous in cells; host or cells: Chang cells (ATCC), TGFβ-treated
T1 sequence (O14894 1-197): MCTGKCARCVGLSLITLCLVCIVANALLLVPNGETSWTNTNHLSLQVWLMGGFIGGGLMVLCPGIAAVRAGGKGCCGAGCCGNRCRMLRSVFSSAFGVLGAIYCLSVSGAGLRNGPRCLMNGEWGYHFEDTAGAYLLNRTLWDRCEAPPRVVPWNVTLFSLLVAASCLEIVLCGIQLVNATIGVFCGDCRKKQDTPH
Nature of the data set: TGFβ1 mediated vimentin expression in Chang cells, Western blotting. It is filed as cell-based. The note with it: 5 μM or 10 μM. As to the method: FIG. 26 is a set of photographs illustrating the results of Western blotting performed to confirm the level of vimentin expression mediated by TGFβ in Chang cells treated with TSAHC, 4′-(p-aminobenzenesulfoneamide)-4-hydroxychalcone, and 4,4-dihydroxychalcone.
(§1) In addition, 4′-(p-aminobenzenesulfonamide)-4-hydroxychalcone (ASAHC), the water-soluble […], was treated to AML12 and Chang cells at the concentration of 5 μM or 10 μM.
For orientation: In western blotting, separated proteins are transferred to a membrane and probed.

The target of data set [2] is T2, TM4SF5 (Mus musculus, UniProt F6X2F3).
T2 construct: normal hepatocytes were treated with TGFβ to induce TM4SF5 expression and EMT, during which TSAHC was treated; endogenous in cells; host or cells: AML12 (ATCC), TGFβ-treated
T2 sequence (F6X2F3 1-196): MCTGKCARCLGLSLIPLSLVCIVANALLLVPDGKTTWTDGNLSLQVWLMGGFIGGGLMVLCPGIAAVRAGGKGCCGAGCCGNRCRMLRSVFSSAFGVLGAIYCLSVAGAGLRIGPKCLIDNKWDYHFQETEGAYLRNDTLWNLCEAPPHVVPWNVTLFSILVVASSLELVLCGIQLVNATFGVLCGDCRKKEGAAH
Nature of the data set: TGFβ1 mediated vimentin expression in AML12 cells, Western blotting. In kind it is cell-based. The note with it: 5 μM or 10 μM. As to the method:
FIG. 27 is a set of photographs illustrating the results of Western blotting performed to confirm the level of vimentin expression mediated by TGFβ in AML12 cells treated with TSAHC, 4′-(p-aminobenzenesulfoneamide)-4-hydroxychalcone, and 4,4-dihydroxychalcone.
as §1

The subject of data set [3] is Balb/c mice treated with CCl4. Nature of the data set: Hepatic injury and hepatic fibrosis induced by CCl4 in mice. It is filed as in vivo, mouse. Conditions: for hepatic injury (H&E staining): 50 mg/kG oral administration or IP, 3 times/week; for hepatic injury (H&E staining) / collagen type I expression (Masson's Trichrome staining): 2 weeks; for collagen type I expression (Masson's Trichrome staining): oral administration or IP, 50 mg/kG; for Ser10 phosphorylation induction (p27) / TM4SF5 signal transduction process (phosphorylation of Smad3, phosphorylation and activation of EFGR/Erk) / p27 expression / α-SMA expression induction: liver tissue extract, Western blotting. Here is the method: Balb/c mice (5 weeks old, n=5) were used. The mice were fed with sterilized water and feeds. For the biological day/night cycle, the indoor light was turned on for 12 hours and off for 12 hours. The mice were treated with CCl4 or ethanol for 2 weeks. The CCl4 group mice were treated with 40% CCl4 diluted in olive oil by intraperitoneal administration ([…], 3 times/week). The CCl4-ContComp group mice were treated with 4′-Amino-4-hydroxychalcone, the control compound (ContComp), every other day and every next day of CCl4 treatment by IP (intraperitoneal injection) or oral administration (50 mg/kG, 40% DMSO, 3 times/week). The CCl4-TSAHC group mice were treated with TSAHC every other day and every next day of CCl4 treatment by IP (intraperitoneal injection) or oral administration (50 mg/kG, 40% DMSO, 3 times/week).
Two weeks later, the mice were sacrificed by using ether. The liver was extracted from the sacrificed animal of each group. Paraffin samples were prepared by the same manner as described in Example 5. The paraffin sections in the thickness of 4-5 μm were fixed on slide, followed by H&E (hematoxylin and eosin) staining for the confirmation of hepatic injury, Masson's Trichrome […] staining for collagen type I staining, and immunihistochemistry with the antibody (1:1500) against α-SMA (smooth muscle actin, Sigma).
Additionally, two mice were randomly selected from each group, from which liver tissue extract was prepared. The protein in the extract was quantified, followed by Western blotting with antibodies against phospho-Y^1173EGFR (Santa Cruz Biotechnology, Santa Cruz, Calif.), phospho-Y^1068EGFR (Santa Cruz Biotechnology, Santa Cruz, Calif.), EGFR (Santa Cruz Biotechnology, Santa Cruz, Calif.), phospho-Erk (Cell Signaling Technology, Danvers, Mass.), Erk (Cell Signaling Technology, Danvers, Mass., USA), phospho-Smad3 (Cell Signaling Technology, Danvers, Mass.), TM4SF5 (antibody of Example 1), α-SMA (smooth muscle actin, Sigma), phospho-S^10-p27 (Santa Cruz Biotechnology, Santa Cruz, Calif., USA), p27 (BD Transduct. Lab. San Jose Calif., USA), and α-tubulin (Sigma-Aldrich).

Data set [4] addresses T2, TM4SF5. Nature of the data set: TGFβ mediated α-SMA expression in normal hepatocytes (AML12 cells) treated with TM4SF5 antagonist, Western blotting. In kind it is cell-based. Here is the method:
FIG. 25 is a set of photographs illustrating the results of Western blotting performed to confirm the level of α-SMA expression induced by TGFβ in AML12 cells treated with TSAHC and […].
First, normal hepatocytes were treated with TGFβ to induce TM4SF5 expression and EMT, during which TSAHC was treated. As described hereinbefore, the normal hepatocytes were washed with serum-free DMEM, followed by serum starvation for 4 hours. Then, the cells treated with TGFβ to induce TM4SF5 expression. 6 hours later, the cells were treated with TSAHC at the concentration of 5 μM or 10 μM, followed by culture for 18 hours. The expression of α-SMA protein was investigated.
For the comparison, the cells were treated with the control compound that had similar structure to TSAHC but had substituted R residue (4′-amino-4-hydroxychalcone) at the same concentration as the above (5 μM or 10 μM).

The next data set relates to AML12 cells. The data set is described as follows: TM4SF5 expression in AML12 cells treated with EGF, HGF and PDGF before TGFβ. The note with it: growth factor 30 minutes before TGFβ (2.5 ng/ml), 24 hours, serum-free. In kind it is cell-based, mouse. Here is the method: AML12 cells were cultured in DMEM supplemented with 10% FBS, which were then washed with serum-free DMEM. The cells were maintained as serum-free status for 4 hours. After serum starvation, the cells were treated with EGF, HGF, and PDGF (PeproTech, Inc., Rocky Hill, N.J., USA) 30 minutes before the treatment of TGFβ (2.5 ng/ml) in order to activate EGFR signaling. The cells were further cultured for 24 hours after the treatment of TGFβ. AML12 cell line was the normal hepatocyte cell line which was sensitive to serum. To make near death condition, the medium was regulated as serum-free and the experiment was carried out under the serum-free condition and ITS (Insulin, transferrin, selenium, Sigma-Aldrich) treated condition, which was the same serum-free condition as mentioned above.
Western blotting was performed to confirm TM4SF5 expression. As a result, when the cells were treated with EGF, HGF, and PDGF, EGFR signaling was activated and thereby TM4SF5 expression was increased (FIG. 11).

For the next data set, the system named is Chang cells. Nature of the data set: TM4SF5 expression and EGFR signal transduction system over treatment times of TGFβ and EGF in Chang cells. In kind it is cell-based, human. As to the method:
Chang cells were cultured in DMEM supplemented with 10% FBS, which were then washed with serum-free DMEM. The cells were maintained as serum-free status for 4 hours. […] Then, TM4SF5 expression and EGFR signal transduction system were investigated.

Setting [5] is: liver tissue of CCl4 treated mice.
Setting [6] is: AML12 cells, compound 5 μM or 10 μM 6 hours after TGFβ, culture for 18 hours, Western blotting.

“Also recorded” adds a separate entry of the source.

Regarding `O=C(/C=C/c1ccc(O)cc1)c1ccc(O)cc1` [4′4-dihydroxychalcone, reference compound], the “TGFβ1 mediated vimentin expression” value at TM4SF5 [1] and on TM4SF5 [2] was “not much changed” throughout.

Turning to `Nc1ccc(C(=O)/C=C/c2ccc(O)cc2)cc1` [4′-amino-4-hydroxychalcone, reference compound], in data set [3] (CCl4 together with compound), the “hepatic injury (H&E staining)” value is “CCl4 dependency was not observed” and the “collagen type I expression (Masson's Trichrome staining)” value is on record as “not detected”. For the same compound, in data set [3], the “Ser10 phosphorylation induction (p27)” value was “not inhibited”; the “TM4SF5 signal transduction process (phosphorylation of Smad3, phosphorylation and activation of EFGR/Erk)” value was “not affected”; the p27 expression result is “not inhibited”; the α-SMA expression induction entry is given as “not inhibited”. In data set [3] (setting [5]), the EMT entry was “not inhibited”. In addition, at TM4SF5 [4] (setting [6]), the “TGFβ mediated α-SMA expression” value is on record as “did not affect” and the TM4SF5 expression result is listed as “did not affect”.

As for `Nc1ccc(S(=O)(=O)Nc2ccc(C(=O)/C=C/c3ccc(O)cc3)cc2)cc1` [ASAHC, 4′-(p-aminobenzenesulfonylamino)-4-hydroxychalcone], the “TGFβ1 mediated vimentin expression” value on TM4SF5 [1] and at TM4SF5 [2] was “down-regulated” in each case.

As for `Cc1ccc(S(=O)(=O)Nc2ccc(C(=O)/C=C/c3ccc(O)cc3)cc2)cc1` [TSAHC, 4′-(p-toluenesulfonylamino)-4-hydroxychalcone], the “TGFβ1 mediated vimentin expression” value at TM4SF5 [1] was “down-regulated”. In data set [3] (CCl4 together with compound), the “hepatic injury (H&E staining)” value is “reduced” and the “collagen type I expression (Masson's Trichrome staining)” value is on record as “decrease; also recorded: reduced”. The “α-SMA expression (immunohistochemical staining)” value in data set [3] (CCl4 together with compound, liver tissue) is listed as “reduced”. Besides, the “liver H&E staining, compound only” value in data set [3] (group treated with compound only, without CCl4) is reported as “normal liver”. In data set [3], the “Ser10 phosphorylation induction (p27)” value was “inhibited”; the “TM4SF5 signal transduction process (phosphorylation of Smad3, phosphorylation and activation of EFGR/Erk)” value is on record as “not affected”; the p27 expression result was “inhibited”; the α-SMA expression induction entry is listed as “inhibited”. In data set [3] (setting [5]), the EMT result is given as “decrease; also recorded: inhibited” and the TM4SF5 activity result is “suppressed”. Besides, the “TGFβ1 mediated vimentin expression” value at TM4SF5 [2] is recorded as “down-regulated”. In addition, the “TGFβ mediated α-SMA expression” value on TM4SF5 [4] (setting [6]) is listed as “significantly reduced; also recorded: inhibit”. Further, at TM4SF5 [4] (normal hepatocytes treated with TGFβ and compound), the EFGR/Erk phosphorylation entry is “reduced”.

With “EGF: growth factor (PeproTech) used to activate EGFR signaling”, the TM4SF5 expression entry in the data set on AML12 cells is given as “increased”. The “EGFR signal transduction system activation and TM4SF5 expression, EGF only” value with Chang cells (EGF only for 4 hours at different concentrations) is listed as “not particularly induced”. In the data set on Chang cells (TGFβ (2.5 ng/ml) and EGF (50 ng/ml), 0, 0.5, 1, 2, and 24 hours), the “EGFR signal transduction system activation and TM4SF5 expression over time” value is given as “induced temporally”.

Take “HGF: growth factor (PeproTech) used to activate EGFR signaling”: the TM4SF5 expression result in the data set with AML12 cells is reported as “increased”.

As to PDGF, the TM4SF5 expression result with AML12 cells is reported as “increased”.
